ChEMBL document CHEMBL1201862, “PubChem BioAssay data set” (2004)
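96-well plates; 48 h exposure; 5 concentrations. Endpoints by linear interpolation between flanking doses. Not reached: highest tested concentration assigned. GI50: concentration for 50% inhibition of growth.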 Activity calls are given as the source filed them. Cut-off read from the data, not from the text of the source: active = GI50 up to about 1.1 µM and inactive = higher.

Legend:
Assay in all cases: DTP human tumour cell line panel, 48 h
[1] = system: BT-549
[2] = system: U-251
[3] = system: UACC-62
[4] = system: MDA-N
[5] = system: UACC-257
[6] = system: SNB-19
[7] = system: RPMI-8226
[8] = system: NCI-H226
[9] = system: MCF7
[10] = system: UO-31
[11] = system: M14
[12] = system: OVCAR-3
[13] = system: DU-145
[14] = system: NCI-H460
[15] = system: MOLT-4
[16] = system: CAKI-1
[17] = system: CCRF-CEM
[18] = system: Hs-578T
[19] = system: KM12
[20] = system: NCI/ADR-RES
[21] = system: HCT-15
[22] = system: T47D
[23] = system: A498
[24] = system: SK-MEL-28
[25] = system: SF-295
[26] = system: OVCAR-8
[27] = system: COLO 205
[28] = system: SN12C
[29] = system: OVCAR-5
[30] = system: HOP-62
[31] = system: SNB-75
[32] = system: PC-3
[33] = system: HCT-116
[34] = system: LOX IMVI
[35] = system: HOP-92
[36] = system: RXF 393
[37] = system: SK-MEL-2
[38] = system: HL-60
[39] = system: MDA-MB-435
[40] = system: TK-10
[41] = system: SK-MEL-5
[42] = system: HT-29
[43] = system: Malme-3M
[44] = system: IGROV-1
[45] = system: SK-OV-3
[46] = system: OVCAR-4
[47] = system: NCI-H23
[48] = system: SR
[49] = system: SW-620
[50] = system: K562
[51] = system: ACHN
[52] = system: NCI-H522
[53] = system: SF-268
[54] = system: HCC 2998
[55] = system: SF-539
[56] = system: 786-0
[57] = system: EKVX
[58] = system: A549
[59] = system: MDA-MB-231

With `O=C(N/N=C\c1cccc2ccccc12)Nc1ccccc1` the GI50 [1] was > 100 µM (inactive), the GI50 [2] was > 100 µM (inactive) and the GI50 [3] was > 100 µM (inactive). The GI50 [4] was > 100 µM (inactive), the GI50 [5] was > 100 µM (inactive) and the GI50 [6] was > 100 µM (inactive). For the same molecule, the GI50 [7] was > 100 µM (inactive), the GI50 [8] was > 100 µM (inactive) and the GI50 [9] was > 100 µM (inactive). The GI50 [10] was > 100 µM (inactive), the GI50 [11] was > 100 µM (inactive) and the GI50 [12] was > 100 µM (inactive). The GI50 [13] was > 100 µM (inactive), the GI50 [14] was > 100 µM (inactive) and the GI50 [15] was > 100 µM (inactive). For the same molecule, the GI50 [16] was > 100 µM (inactive), the GI50 [17] was > 100 µM (inactive) and the GI50 [18] was > 100 µM (inactive). For the same molecule, the GI50 [19] was > 100 µM (inactive), the GI50 [20] was > 100 µM (inactive) and the GI50 [21] was over 100 µM. For the same molecule, the GI50 [22] was > 100 µM (inactive), the GI50 [23] was > 100 µM (inactive) and the GI50 [24] was > 100 µM (inactive). The GI50 [25] was > 100 µM (inactive), the GI50 [26] was > 100 µM (inactive) and the GI50 [27] was > 100 µM (inactive). For the same molecule, the GI50 [28] was > 100 µM (inactive), the GI50 [29] was > 100 µM (inactive) and the GI50 [30] was > 100 µM (inactive). The GI50 [31] was > 100 µM (inactive), the GI50 [32] was > 100 µM (inactive) and the GI50 [33] was > 100 µM (inactive). For the same molecule, the GI50 [34] was > 100 µM (inactive), the GI50 [35] was > 100 µM (inactive) and the GI50 [36] was > 100 µM (inactive). For the same molecule, the GI50 [37] was > 100 µM (inactive), the GI50 [38] was > 10 µM (inactive) and the GI50 [39] was > 100 µM (inactive). For the same molecule, the GI50 [40] was > 100 µM (inactive), the GI50 [41] was > 100 µM (inactive) and the GI50 [42] was > 100 µM (inactive). For the same molecule, the GI50 [43] was > 100 µM (inactive), the GI50 [44] was > 100 µM (inactive) and the GI50 [45] was > 100 µM (inactive). For the same molecule, the GI50 [46] was > 100 µM (inactive), the GI50 [47] was > 100 µM (inactive) and the GI50 [48] was > 100 µM (inactive). The GI50 [49] was > 100 µM (inactive) and the GI50 [50] was > 100 µM (inactive).
In the case of `CC(C)Oc1cccc(N2C(NCc3c[nH]c4ccccc34)=Nc3ccncc3S2(=O)=O)c1`, the GI50 [1] is reported as 34.8 µM (inactive), the GI50 [2] is reported as 29.4 µM (inactive) and the GI50 [3] is reported as 11.9 µM (inactive). The GI50 [4] was 31.6 µM (inactive), the GI50 [5] was 31.3 µM (inactive) and the GI50 [6] was 32.4 µM (inactive). For the same molecule, the GI50 [7] was 7.01 µM (inactive), the GI50 [8] was 45.4 µM (inactive) and the GI50 [9] was 18.4 µM (inactive). For the same molecule, the GI50 [10] was 47.4 µM (inactive), the GI50 [11] was 21 µM (inactive) and the GI50 [12] was 12.9 µM (inactive). The GI50 [13] was 42.8 µM (inactive), the GI50 [14] was 18.5 µM (inactive) and the GI50 [15] was 16.7 µM (inactive). The GI50 [16] was 32.1 µM (inactive), the GI50 [17] was 35.2 µM (inactive) and the GI50 [18] was 16.2 µM (inactive). For the same molecule, the GI50 [19] was 33.3 µM (inactive), the GI50 [20] was 19.7 µM (inactive) and the GI50 [21] was 22.5 µM. For the same molecule, the GI50 [22] was 5.47 µM (inactive), the GI50 [23] was 28.8 µM (inactive) and the GI50 [24] was 45.8 µM (inactive). For the same molecule, the GI50 [25] was 18.7 µM (inactive), the GI50 [26] was 29.9 µM (inactive) and the GI50 [27] was 11.2 µM (inactive). The GI50 [28] was 39.5 µM (inactive), the GI50 [29] was 47.8 µM (inactive) and the GI50 [30] was 30.9 µM (inactive). For the same molecule, the GI50 [31] was 18.3 µM (inactive), the GI50 [51] was 20.4 µM (inactive) and the GI50 [32] was 16.3 µM (inactive). The GI50 [33] was 27.7 µM (inactive), the GI50 [34] was 26.9 µM (inactive) and the GI50 [35] was 15.4 µM (inactive). For the same molecule, the GI50 [36] was 40.3 µM (inactive), the GI50 [37] was 18.6 µM (inactive) and the GI50 [38] was 21.5 µM (inactive). For the same molecule, the GI50 [39] was 32.4 µM (inactive), the GI50 [40] was 25.2 µM (inactive) and the GI50 [52] was 17.4 µM (inactive). The GI50 [41] was 13.9 µM (inactive), the GI50 [42] was 25.1 µM (inactive) and the GI50 [43] was 20.5 µM (inactive). The GI50 [53] was 32.2 µM (inactive), the GI50 [54] was 25.5 µM (inactive) and the GI50 [44] was 20.4 µM (inactive). For the same molecule, the GI50 [55] was 53.6 µM (inactive), the GI50 [56] was 30.3 µM (inactive) and the GI50 [45] was 33.2 µM (inactive). The GI50 [46] was 34.4 µM (inactive), the GI50 [57] was 23.1 µM (inactive) and the GI50 [47] was 22.8 µM (inactive). The GI50 [58] was 20.4 µM (inactive), the GI50 [48] was 28.8 µM (inactive) and the GI50 [49] was 33.7 µM (inactive). For the same molecule, the GI50 [50] was 21.1 µM (inactive).
With `CCCC(=O)NC(Nc1ccc(S(=O)(=O)Nc2nc(C)cc(C)n2)cc1)(C(F)(F)F)C(F)(F)F` the GI50 [1] was > 100 µM (inactive), the GI50 [2] was > 100 µM (inactive) and the GI50 [3] was > 100 µM (inactive). The GI50 [4] was > 100 µM (inactive), the GI50 [5] was > 100 µM (inactive) and the GI50 [6] was > 100 µM (inactive). For the same molecule, the GI50 [7] was > 100 µM (inactive), the GI50 [8] was > 100 µM (inactive) and the GI50 [10] was > 100 µM (inactive). For the same molecule, the GI50 [11] was > 100 µM (inactive), the GI50 [12] was > 100 µM (inactive) and the GI50 [13] was > 100 µM (inactive). The GI50 [14] was > 100 µM (inactive), the GI50 [15] was > 100 µM (inactive) and the GI50 [16] was > 100 µM (inactive). The GI50 [17] was > 100 µM (inactive), the GI50 [18] was > 100 µM (inactive) and the GI50 [19] was > 100 µM (inactive). For the same molecule, the GI50 [20] was > 100 µM (inactive), the GI50 [21] was over 100 µM and the GI50 [22] was > 100 µM (inactive). The GI50 [23] was > 100 µM (inactive), the GI50 [24] was > 100 µM (inactive) and the GI50 [25] was > 100 µM (inactive). For the same molecule, the GI50 [26] was > 100 µM (inactive), the GI50 [27] was > 100 µM (inactive) and the GI50 [28] was > 100 µM (inactive). The GI50 [29] was > 100 µM (inactive), the GI50 [30] was > 100 µM (inactive) and the GI50 [31] was > 100 µM (inactive). For the same molecule, the GI50 [51] was > 100 µM (inactive), the GI50 [32] was > 100 µM (inactive) and the GI50 [33] was > 100 µM (inactive). For the same molecule, the GI50 [34] was > 100 µM (inactive), the GI50 [59] was > 100 µM (inactive) and the GI50 [35] was > 100 µM (inactive). The GI50 [36] was > 100 µM (inactive), the GI50 [37] was > 100 µM (inactive) and the GI50 [38] was > 100 µM (inactive). For the same molecule, the GI50 [39] was > 100 µM (inactive), the GI50 [40] was > 100 µM (inactive) and the GI50 [52] was > 100 µM (inactive). For the same molecule, the GI50 [41] was > 100 µM (inactive), the GI50 [42] was > 100 µM (inactive) and the GI50 [43] was > 100 µM (inactive). The GI50 [53] was > 100 µM (inactive), the GI50 [54] was > 100 µM (inactive) and the GI50 [44] was > 100 µM (inactive). For the same molecule, the GI50 [55] was > 100 µM (inactive), the GI50 [56] was > 100 µM (inactive) and the GI50 [45] was > 100 µM (inactive). For the same molecule, the GI50 [46] was > 100 µM (inactive), the GI50 [57] was > 100 µM (inactive) and the GI50 [47] was > 100 µM (inactive). The GI50 [58] was > 100 µM (inactive), the GI50 [48] was > 100 µM (inactive) and the GI50 [49] was > 100 µM (inactive). The GI50 [50] was > 100 µM (inactive).
